14 molecules from ChEMBL document CHEMBL1201862, “PubChem BioAssay data set” (2004) can be followed below.

In general, IC50 refers to the concentration at which inhibition is half-maximal. Usually EC50 stands for the midpoint of the concentration-response curve. For orientation: AC50 means the midpoint of the concentration-response curve, whichever way the signal moves. For orientation: CC50 means the concentration that lowers cell viability or growth by half.

Activity calls are given as the source filed them. Where only a bound is given, the exact number is not on record here.

Experiment [1] concerns the target Peroxisome proliferator-activated receptor gamma/Nuclear receptor corepressor 2 (Homo sapiens, UniProt P37231+Q9Y618). Kind of experiment: Counterscreen for NR2E3 inverse agonists: TR-FRET-based biochemical high throughput dose response assay to identify inverse agonists of the interaction between peroxisome proliferator-activated receptor gamma (PPARg) and nuclear receptor co-repressor 2 (NCOR2). It counts as functional.

Experiment [2] addresses Photoreceptor-specific nuclear receptor (Homo sapiens, UniProt Q9Y5X4). Kind of experiment: ligands suppressing NR2E3 nuclear receptor activity – biochemical, TR-FRET, dose response (AID 463256). It counts as functional. Background: Time-resolved FRET reads energy transfer from a long-lived donor to a nearby acceptor.
For the next experiment, the system named is Streptococcus. The experiment is described as follows: GAS UMAA2166 growth inhibition – luminescence, BacTiterGlo, counter-screen for streptokinase expression inhibitor project, dose response (AID 1915).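 Also: potency for reduction of bacterial viability or growth.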 It counts as functional, organism-based.
A further experiment concerns the target T1, Streptokinase A (Streptococcus pyogenes serotype M1, UniProt P10520).
T1 sequence (P10520 whole entry): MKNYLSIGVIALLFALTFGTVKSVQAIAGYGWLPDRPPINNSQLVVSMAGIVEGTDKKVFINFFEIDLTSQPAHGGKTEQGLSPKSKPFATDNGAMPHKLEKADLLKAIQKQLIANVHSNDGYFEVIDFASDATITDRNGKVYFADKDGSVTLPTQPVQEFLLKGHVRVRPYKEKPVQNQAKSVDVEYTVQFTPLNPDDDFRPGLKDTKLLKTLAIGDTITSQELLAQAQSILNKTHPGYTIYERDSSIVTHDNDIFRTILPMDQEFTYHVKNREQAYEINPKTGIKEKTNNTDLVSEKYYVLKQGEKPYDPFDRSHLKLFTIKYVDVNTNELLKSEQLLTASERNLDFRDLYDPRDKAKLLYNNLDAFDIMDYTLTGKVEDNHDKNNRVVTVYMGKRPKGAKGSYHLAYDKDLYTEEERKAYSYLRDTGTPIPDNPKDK
Kind of experiment: viability-normalized secreted streptokinase activity reduction – plasminogen activation absorbance, OD405, dose response (AID 1914).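 Also: secreted streptokinase activity via plasminogen activation per viability signal from cell pellet.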 It counts as functional, Streptococcus pyogenes M1 GAS.

In experiment [3] the test system is Streptococcus sp. 'group A'. The experiment is described as follows: Streptococcus pyogenes SK(-)GAS viability under kanamycin – luminescence, BacTiterGlo, confirmation, counter-screen for streptokinase expression inhibitor project, dose response (AID 1900). It counts as functional, organism-based.
A short description of experiment [4]: reduced cellular PGC1a acetyl-lysine signal – cell-based, cherry-picked samples, dose response (AID 720514).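 Also: potency may reflect raised or lowered acetylation signal.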 It counts as functional.
Experiment [5] can be described thus: viability of uninfected HEp-2 cells – cell-based, HTS, cytotoxicity control for RSV inhibitor project, dose response (AID 2410). It counts as functional. To be noted: human respiratory syncytial virus.
A short description of experiment [6]: Luminescence Cell-Based Dose Retest to Confirm Inhibitors of Cancer Stem Cells. [Related pubchem assays (depositor defined):AID2717, AID2721]. It counts as functional. To be noted: Homo sapiens.
Another experiment addresses T2, Caspase-6 (Homo sapiens, UniProt P55212).
T2 sequence (P55212 whole entry): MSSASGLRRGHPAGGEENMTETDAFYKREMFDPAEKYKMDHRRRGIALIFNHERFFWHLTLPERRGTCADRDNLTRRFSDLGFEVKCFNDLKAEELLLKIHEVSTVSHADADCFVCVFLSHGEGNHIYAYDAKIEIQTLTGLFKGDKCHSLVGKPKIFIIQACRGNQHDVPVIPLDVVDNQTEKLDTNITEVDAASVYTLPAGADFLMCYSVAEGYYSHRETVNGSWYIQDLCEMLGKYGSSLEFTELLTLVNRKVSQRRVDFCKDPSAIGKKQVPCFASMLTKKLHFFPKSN
Kind of experiment: inhibition of CASP6 peptide cleavage – biochemical, VEID-R110 fluorescence, cherry-pick, dose response (AID 720632).

Experiment [7] addresses T3, Mannose-6-phosphate isomerase (Homo sapiens, UniProt P34949).
T3 sequence (P34949 whole entry): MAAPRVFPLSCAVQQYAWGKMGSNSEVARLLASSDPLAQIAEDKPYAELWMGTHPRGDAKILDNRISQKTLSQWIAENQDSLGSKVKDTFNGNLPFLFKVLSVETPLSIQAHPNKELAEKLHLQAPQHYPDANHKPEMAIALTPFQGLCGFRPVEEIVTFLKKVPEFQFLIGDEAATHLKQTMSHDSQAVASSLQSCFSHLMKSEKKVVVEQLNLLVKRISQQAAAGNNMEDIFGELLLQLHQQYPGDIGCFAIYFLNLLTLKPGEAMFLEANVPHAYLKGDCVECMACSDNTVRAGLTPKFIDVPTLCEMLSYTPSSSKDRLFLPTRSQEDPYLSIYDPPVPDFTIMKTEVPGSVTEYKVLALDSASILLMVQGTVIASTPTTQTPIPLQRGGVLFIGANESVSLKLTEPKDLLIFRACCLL
The experiment is described as follows: MPI inhibition at elevated mannose 6-phosphate – biochemical, fluorescence intensity, high mannose 6-phosphate, primary screen (AID 1220).

Experiment [8] is described as follows: HGIII-sPLA2 enzyme inhibition potency – biochemical, QFRET, IC50, dose response (AID 743457).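 Also: green fluorescence rise as the enzyme cleaves BODIPY PC-A2 in liposomes.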
The nature of experiment [9]: blockers of HIV-1 ZM109 envelope-driven cell-cell fusion – HeLa effector, CEM target cells, luciferase, cherry-pick, dose response (AID 652058).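 Also: luciferase signal from HIV-1 Env mediated cell-cell fusion of effector and target cells.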 It counts as functional, cell-based.
Experiment [10] can be described thus: HIV-1 AD8 envelope cell-cell fusion blockers – cherry-pick, dose response (AID 652062).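 Also: luciferase signal from cell-cell fusion driven by HIV-1 clade B AD8 Env; potency is for inhibitors of fusion seen as a drop in luminescence.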 It counts as functional, cell-based.
Experiment [11] is described as follows: blockers of HIV-1 envelope-mediated cell-cell fusion – cherry-pick, dose response (AID 652057). It counts as functional, cell-based.
A short description of experiment [12]: P. falciparum Dd2 growth inhibitors, dose response, SYBR Green, cherry-picked samples (AID 1159567). It counts as functional, cell-based.
The nature of experiment [13]: Dd2 malaria parasite growth inhibition potency – SYBR Green, dry powder samples, dose response (AID 1159566).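 Also: potency for growth inhibition with lower SYBR green DNA signal.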 It counts as functional, cell-based.
The nature of experiment [14]: toxicity to human HepG2 hepatoma cells – cell-based, plate reader, dry powder samples, cytotoxicity control, dose response (AID 1159569).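 Also: inhibitor potency with signal falling toward the positive control level.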 It counts as functional.
The nature of experiment [15]: growth inhibition of yeast DHODH-expressing 3D7 parasites – SYBR Green, dry powder samples, dose response (AID 1159570).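 Also: parasite growth measured after 72 hours of compound exposure.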 It counts as functional, cell-based.
Experiment [16] is described as follows: growth inhibition of PfATP4-mutant resistant parasites – NITD609-resistant line, SYBR Green, dry powder, dose response (AID 1159571).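 Also: parasites synchronized at ring stage by sorbitol before testing.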 It counts as functional, cell-based.
Experiment [17] concerns the target T3, Mannose-6-phosphate isomerase. Kind of experiment: MPI enzyme activity inhibition – biochemical, fluorescence intensity, coupled assay, primary screen (AID 1209).
The nature of experiment [18]: rise of 4N DNA cells, HeLa – IC50, dose response (AID 1117351). It counts as functional, cell-based.
A short description of experiment [19]: rise of 2N DNA cells, HeLa – IC50, dose response (AID 1117349). It counts as functional, cell-based.
Experiment [20] in a line: potency of ADAM10 substrate cleavage blockers – biochemical, QFRET, dose response (AID 743254).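 Also: ADAM10 enzyme with the DM2 quenched FRET peptide as substrate; EDANS fluorescence gain as the protease cuts the substrate; inhibitor potency against ADAM10 proteolytic activity.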
Experiment [21] has as its target T4, Disintegrin and metalloproteinase domain-containing protein 17 (Homo sapiens, UniProt P78536). Kind of experiment: exosite inhibitors of ADAM17, dose response, biochemical (AID 743260).
Experiment [22] concerns the target FAD-linked sulfhydryl oxidase ALR (Homo sapiens, UniProt P55789). Kind of experiment: ALR-catalysed DTT oxidation blockers – biochemical, H2O2 detection, luminescence, cherry-pick, dose response (AID 493248).
A short description of experiment [23]: inhibition of ADAM10 peptide cleavage – biochemical, FRET peptide substrate, recombinant human ADAM10, selectivity assay for ADAM17 exosite inhibitor project, dose response (AID 743259).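 Also: ADAM10 enzyme cleaving a FRET peptide substrate.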
Experiment [24] concerns the target T4, Disintegrin and metalloproteinase domain-containing protein 17. Kind of experiment: inhibition of ADAM17 substrate cleavage – biochemical, quenched FRET substrate, counter-screen for ADAM10 exosite inhibitor project, dose response (AID 743253). On the technique in general: The purpose of a counterscreen is to sort out artefacts and off-target activity.

Photoreceptor-specific nuclear receptor, sequence (Q9Y5X4 whole entry): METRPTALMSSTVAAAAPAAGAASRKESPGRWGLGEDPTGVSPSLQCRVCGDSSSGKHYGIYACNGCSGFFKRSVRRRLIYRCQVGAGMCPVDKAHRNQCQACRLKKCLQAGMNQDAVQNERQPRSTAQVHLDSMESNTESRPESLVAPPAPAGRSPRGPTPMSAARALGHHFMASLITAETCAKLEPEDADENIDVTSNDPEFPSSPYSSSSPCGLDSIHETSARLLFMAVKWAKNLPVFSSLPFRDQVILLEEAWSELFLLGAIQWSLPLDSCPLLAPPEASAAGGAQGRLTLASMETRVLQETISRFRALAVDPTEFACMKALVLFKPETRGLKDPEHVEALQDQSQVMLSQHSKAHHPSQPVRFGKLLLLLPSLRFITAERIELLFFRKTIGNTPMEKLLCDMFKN
Peroxisome proliferator-activated receptor gamma/Nuclear receptor corepressor 2, sequence (P37231 whole entry): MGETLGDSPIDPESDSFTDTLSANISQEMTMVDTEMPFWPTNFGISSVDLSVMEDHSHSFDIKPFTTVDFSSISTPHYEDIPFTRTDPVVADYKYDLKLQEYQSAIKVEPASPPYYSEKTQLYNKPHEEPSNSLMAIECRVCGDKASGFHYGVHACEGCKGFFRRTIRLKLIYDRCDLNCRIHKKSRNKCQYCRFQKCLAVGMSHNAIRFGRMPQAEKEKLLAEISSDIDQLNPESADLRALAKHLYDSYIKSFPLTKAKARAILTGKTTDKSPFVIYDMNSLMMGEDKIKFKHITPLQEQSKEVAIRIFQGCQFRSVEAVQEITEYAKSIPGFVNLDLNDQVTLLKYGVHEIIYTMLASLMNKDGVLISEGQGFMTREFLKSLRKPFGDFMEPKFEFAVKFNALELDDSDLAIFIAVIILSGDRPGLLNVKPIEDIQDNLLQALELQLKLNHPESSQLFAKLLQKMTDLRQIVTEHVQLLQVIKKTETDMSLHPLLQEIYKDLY
Peroxisome proliferator-activated receptor gamma/Nuclear receptor corepressor 2, sequence (Q9Y618 whole entry): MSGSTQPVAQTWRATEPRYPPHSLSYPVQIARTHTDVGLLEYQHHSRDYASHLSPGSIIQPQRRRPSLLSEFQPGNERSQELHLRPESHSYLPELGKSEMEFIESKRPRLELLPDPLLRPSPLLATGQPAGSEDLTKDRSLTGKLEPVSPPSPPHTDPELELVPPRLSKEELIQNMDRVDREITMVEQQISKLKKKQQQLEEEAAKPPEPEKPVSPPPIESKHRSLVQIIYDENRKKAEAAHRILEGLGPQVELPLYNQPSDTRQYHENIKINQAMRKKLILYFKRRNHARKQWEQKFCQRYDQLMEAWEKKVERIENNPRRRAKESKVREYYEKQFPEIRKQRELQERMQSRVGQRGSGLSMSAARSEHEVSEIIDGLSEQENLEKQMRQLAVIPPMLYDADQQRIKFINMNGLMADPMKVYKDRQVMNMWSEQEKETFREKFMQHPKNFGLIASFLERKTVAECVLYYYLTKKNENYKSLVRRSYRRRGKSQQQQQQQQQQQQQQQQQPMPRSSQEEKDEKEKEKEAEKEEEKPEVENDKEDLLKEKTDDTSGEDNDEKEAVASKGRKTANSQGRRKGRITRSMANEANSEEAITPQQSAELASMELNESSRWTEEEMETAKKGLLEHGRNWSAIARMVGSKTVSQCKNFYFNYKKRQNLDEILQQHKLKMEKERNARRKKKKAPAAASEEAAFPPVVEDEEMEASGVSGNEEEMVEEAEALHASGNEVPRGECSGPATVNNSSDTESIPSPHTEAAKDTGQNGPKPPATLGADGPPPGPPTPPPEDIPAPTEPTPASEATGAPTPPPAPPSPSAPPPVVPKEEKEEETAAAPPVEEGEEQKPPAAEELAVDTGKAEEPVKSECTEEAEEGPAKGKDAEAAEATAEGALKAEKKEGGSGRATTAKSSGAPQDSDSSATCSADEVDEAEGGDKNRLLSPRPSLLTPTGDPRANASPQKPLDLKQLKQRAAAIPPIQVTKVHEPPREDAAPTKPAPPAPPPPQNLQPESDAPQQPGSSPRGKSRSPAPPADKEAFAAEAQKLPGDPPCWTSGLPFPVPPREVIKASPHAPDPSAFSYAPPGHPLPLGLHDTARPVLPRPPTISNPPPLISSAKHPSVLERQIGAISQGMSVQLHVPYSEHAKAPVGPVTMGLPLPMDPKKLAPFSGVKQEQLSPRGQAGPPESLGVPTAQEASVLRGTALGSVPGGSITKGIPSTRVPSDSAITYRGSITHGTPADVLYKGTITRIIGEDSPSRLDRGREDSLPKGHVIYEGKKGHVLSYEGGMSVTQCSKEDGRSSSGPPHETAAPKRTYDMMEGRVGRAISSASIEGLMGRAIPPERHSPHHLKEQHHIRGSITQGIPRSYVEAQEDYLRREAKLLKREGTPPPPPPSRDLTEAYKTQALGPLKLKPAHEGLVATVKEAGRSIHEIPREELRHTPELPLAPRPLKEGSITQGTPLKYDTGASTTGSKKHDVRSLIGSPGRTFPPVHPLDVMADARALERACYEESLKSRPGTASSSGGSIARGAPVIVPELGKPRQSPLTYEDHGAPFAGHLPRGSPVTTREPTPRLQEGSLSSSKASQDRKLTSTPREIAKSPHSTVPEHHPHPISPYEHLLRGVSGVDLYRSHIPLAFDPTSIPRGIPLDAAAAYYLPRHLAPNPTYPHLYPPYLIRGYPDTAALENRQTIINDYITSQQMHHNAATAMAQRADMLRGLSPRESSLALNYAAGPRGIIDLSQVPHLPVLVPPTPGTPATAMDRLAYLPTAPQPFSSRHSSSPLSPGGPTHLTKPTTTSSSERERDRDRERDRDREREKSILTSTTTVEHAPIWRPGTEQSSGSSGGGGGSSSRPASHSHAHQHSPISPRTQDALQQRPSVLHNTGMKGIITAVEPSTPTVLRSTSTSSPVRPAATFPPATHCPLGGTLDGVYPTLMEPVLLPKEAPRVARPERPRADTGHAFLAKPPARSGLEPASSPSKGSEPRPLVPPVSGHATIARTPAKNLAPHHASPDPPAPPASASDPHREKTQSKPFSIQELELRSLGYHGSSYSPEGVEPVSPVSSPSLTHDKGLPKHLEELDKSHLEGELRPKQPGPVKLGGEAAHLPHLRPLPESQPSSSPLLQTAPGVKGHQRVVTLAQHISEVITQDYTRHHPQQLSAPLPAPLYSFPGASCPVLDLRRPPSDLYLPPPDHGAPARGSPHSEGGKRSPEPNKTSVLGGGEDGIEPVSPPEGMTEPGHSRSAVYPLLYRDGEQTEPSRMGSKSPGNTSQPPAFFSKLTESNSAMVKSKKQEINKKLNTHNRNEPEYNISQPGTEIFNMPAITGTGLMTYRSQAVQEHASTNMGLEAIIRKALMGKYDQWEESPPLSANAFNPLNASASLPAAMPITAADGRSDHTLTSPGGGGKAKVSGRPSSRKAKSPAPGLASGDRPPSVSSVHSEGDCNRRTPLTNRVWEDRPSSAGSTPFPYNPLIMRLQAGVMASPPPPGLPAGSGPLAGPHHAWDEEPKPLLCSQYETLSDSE
T4 sequence (P78536 whole entry, the tested form may be a part): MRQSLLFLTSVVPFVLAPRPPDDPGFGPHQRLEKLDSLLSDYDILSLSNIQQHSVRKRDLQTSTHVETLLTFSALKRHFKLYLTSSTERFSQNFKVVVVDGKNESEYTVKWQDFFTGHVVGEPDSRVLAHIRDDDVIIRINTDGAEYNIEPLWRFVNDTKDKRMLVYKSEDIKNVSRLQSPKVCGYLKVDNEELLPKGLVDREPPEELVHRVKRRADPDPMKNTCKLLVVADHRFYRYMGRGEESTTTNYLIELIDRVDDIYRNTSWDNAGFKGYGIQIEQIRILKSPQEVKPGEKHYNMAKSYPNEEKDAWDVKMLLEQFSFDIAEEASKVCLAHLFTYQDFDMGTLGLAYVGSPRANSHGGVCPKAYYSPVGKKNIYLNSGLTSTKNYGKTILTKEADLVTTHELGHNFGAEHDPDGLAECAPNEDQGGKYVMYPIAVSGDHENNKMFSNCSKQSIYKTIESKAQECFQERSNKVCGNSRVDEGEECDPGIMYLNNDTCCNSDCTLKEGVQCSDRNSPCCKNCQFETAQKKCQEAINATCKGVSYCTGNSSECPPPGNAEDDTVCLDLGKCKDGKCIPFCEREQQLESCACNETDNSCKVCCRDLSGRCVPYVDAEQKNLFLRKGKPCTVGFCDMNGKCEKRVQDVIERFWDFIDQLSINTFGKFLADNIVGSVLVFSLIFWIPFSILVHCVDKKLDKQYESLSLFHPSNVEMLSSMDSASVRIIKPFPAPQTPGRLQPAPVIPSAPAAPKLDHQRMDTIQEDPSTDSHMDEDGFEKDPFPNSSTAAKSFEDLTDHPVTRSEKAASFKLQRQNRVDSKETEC
FAD-linked sulfhydryl oxidase ALR, sequence (P55789 whole entry): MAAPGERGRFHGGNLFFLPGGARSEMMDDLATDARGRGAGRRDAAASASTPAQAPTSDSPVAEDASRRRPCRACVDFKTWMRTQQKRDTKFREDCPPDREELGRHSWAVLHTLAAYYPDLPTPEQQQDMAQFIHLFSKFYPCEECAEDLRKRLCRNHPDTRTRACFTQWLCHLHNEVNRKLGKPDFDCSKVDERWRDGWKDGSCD

With `COc1cnn(-c2ccccc2)c(=O)c1SCc1ccc(Cl)c(Cl)c1`, the IC50 in [1] was 5.85 µM (active); in experiment [2] it was 5 µM (active).
On to `Oc1ccc(/C=N/Nc2nc(-c3ccc(Cl)cc3)cc(C(F)(F)F)n2)cc1`, for which the EC50 in the experiment on Streptococcus was > 150 µM (not active); on Streptokinase A, 16.3 µM (active); in experiment [3], 12.1 µM (active). Also, the AC50 in [4] is 31.7 µM (active); in experiment [6] it was 4.06 µM (active). Further, the CC50 in experiment [5] is 13.4 µM (active).
Regarding `O=C(CCc1nc(O)c2c3c(sc2n1)CCCC3)NCC(=O)Nc1ccccc1Br`, the AC50 on Caspase-6 is 26.8 µM (active).
Consider `CCOC(=O)N1CCN(CCC(=O)c2ccc(Cl)cc2)CC1`, for which the concentration for half-maximal inhibition (IC50) in experiment [7] is > 50 µM (not active). Besides, the AC50 in experiment [6] was 12 µM (active).
With `O=C(CNc1ccc(Cl)cc1)NNC(=S)NCc1ccccc1`, the IC50 in experiment [8] is > 122 µM (inactive).
For `C[C@H](CO)N1C[C@H](C)[C@H](CN(C)S(=O)(=O)c2ccc(Cl)cc2)Oc2ccc(NC(=O)Nc3ccc4c(c3)OCO4)cc2C1=O`, the AC50 was 6.18 µM (active) in experiment [9], 13.7 µM (active) in [10] and 2.11 µM (active) in [11].
Take `Cc1ccc(S(=O)(=O)N2C[C@@H]3N[C@H](C2)[C@H]3c2ccc(-c3ccncc3)cc2)cc1`: the AC50 in experiment [12] is 1.37 µM (active); in experiment [13], 1.03 µM (active); in [14] it was 82.3 µM (active); in experiment [15], 1.26 µM (active); in experiment [16], 1.67 µM (active).
Take `Cc1c(Cl)c(C(=O)NN=C(S)Nc2ccc(F)cc2)nn1C`: the IC50 in experiment [8] was > 122 µM (inactive).
In the case of `CCCN(C)C[C@H]1Oc2ncc(C#Cc3ccc(F)cc3)cc2C(=O)N([C@@H](C)CO)C[C@H]1C`, the AC50 is 2.37 µM (active) in experiment [12]; 1.24 µM (active) in experiment [13]; 24.3 µM (active) in experiment [14]; 2.14 µM (active) in experiment [15]; 1.23 µM (active) in experiment [16].
With `O=C(CSc1ccc(-c2cccs2)nn1)N1CCCCCC1`, the IC50 in experiment [1] was > 39.8 µM (not active); in [2], 4.73 µM (active).
On to `O=C(NCCO)c1cc2ccccc2cc1O`, for which, in [17], the IC50 is > 50 µM (not active).
For `Cc1ccc(Nc2nccc(N(C)c3ccc4c(C)n(C)nc4c3)n2)cc1S(N)(=O)=O` [PAZOPANIB], the IC50 in experiment [18] and in experiment [19] was > 10 µM (inactive) in each case.
Consider `CS(=O)(=O)N(CC(=O)N1CCC(C(N)=O)CC1)c1ccc(Oc2ccccc2)cc1`, for which the IC50 in experiment [1] is 0.792 µM (active); in [2], 1.05 µM (active).
On to `O=C(NO)c1ccc(OC(F)F)cc1`, for which the IC50 is 37 µM (inactive) in experiment [20], 29.5 µM (inactive) in experiment [21], 40.2 µM (inactive) in experiment [23] and 36.5 µM (inactive) in [24]. For the same molecule, the half-maximal activity concentration (AC50) in experiment [22] is 4.38 µM (active).
